# According to PMC8117003, “Pharmacokinetic Profile and Oral Bioavailability of Diosgenin, Charantin, and Hydroxychalcone From a Polyherbal Formulation” (Frontiers in Pharmacology, 2021):
# Several values for one entry are separate records, joined by “and”; a condition that tells them apart may be missing. Equal entries are not always repeated. Where two headings read alike, the source gives them in different places.
# Key:
# [1] = Stability of marker compounds (bioanalytical HPTLC, quality control samples); type: in vitro ADME, rat; details: for Freeze thaw stability / Short-term room temperature stability: rat plasma
# Procedure: Sample stability was determined by analyzing samples for quality control for analyte’s stock stability in solvent, refrigerator stock solution stability, freeze and thaw stability, and bench top stability. The stability experiments were carried out to evaluate the degradations of the marker compounds under different experimental conditions. […] As per the acceptance criteria, % ratio (Stability/comparison) should be within 85–115%; from the above results, it was concluded that all the marker compounds were within the acceptance criteria for stability study Table 7.
# [2] = Pharmacokinetics and absolute bioavailability of pure marker compounds after single oral and i.v. dose; type: in vivo, male Wistar rats; details: for MRT: MRT (mean residence time); for half-life: t 1/2 (plasma half-life); for k el: plasma, read-out: Kel (elimination rate constant) (converted); for k el / Kel (elimination rate constant): rat plasma
# Procedure: Plasma concentrations of active marker compounds were determined using validated high-performance thin layer chromatography (HPTLC) with the UV detection method.
# The plasma samples (150 µl) were deproteinized by adding mixture of methanol: dichloromethane (1:1), followed by vortex mixing at 3000 rpm for 5 min. The supernatant was separated and further extracted with about 1.5 ml of ethyl acetate by mixing on vortex mixer at 3000 rpm for 10 min. The ethyl acetate layer was then collected and evaporated to dryness, followed by reconstitution with mobile phase (200 µl) containing chloroform: glacial acetic acid: methanol: water ((4.0:3.0:2.0:1.0) v/v and 100 µl was applied on a HPTLC plate. The optimized HPTLC conditions for development and quantification of the constituents is given in Table 2.
# Absolute bioavailabilities of marker compounds viz. diosgenin, charantin, and hydroxychalcone were determined in male Wistar rats. The animals weighing 300–350 gm were fasted overnight before the dosing with free access to drinking water throughout the experimental period. For the purpose of dosing all the three marker compounds viz, diosgenin, charantin, and hydroxychalcone were suspended in water to make the dose of 15 mg/kg per oral to be administrated to the groups of […]. The animals were divided into two groups with six animals in each group. The first group received the marker compounds in the dose of 1.5 mg/kg i.v. via lateral tail vein, while the second group received the marker compounds in the dose of 15 mg/kg p.o. The rats were anesthetized using ether and blood samples were collected through puncturing the retro-orbital plexus at 0, 0.17, 0.5, 1, 2, 4, 6, 12, and 24 h time points. Blood samples were centrifuged to separate plasma and stored at −20°C until bioanalysis.
# Non-compartmental analysis of data was performed using statistical moment theory. The peak plasma concentration (Cmax) and the corresponding time (Tmax) were directly obtained from the raw data.
# The area under the plasma concentration vs. time curve upto the last quantifiable point, AUC(0-t), was calculated by the linear and log-linear trapezoidal rule summation: AUC(0−t) =∑C0+Ct/2× Tt− T0.
# The AUC(0-t) was extrapolated to infinity (i.e., […]) by adding the quotient of Clast/Kel, AUC(t−∞) = Clast/Kel,
# Kel was calculated by the linear regression of the log-transformed concentrations of the last three data points in the terminal phase. Kel = −slope × 2.303.
# The half-life of the elimination phase was obtained from using the relationship, t 1/2 = 0.693/Kel.
# Clearance was calculated using the relationship Cl = Vd × Kel
# Apparent volume of distribution was calculated using relationship Vd = Dose Administered/Plasma concentration.
# Absolute oral bioavailability (F) was calculated using relationship F = {[AUC (oral)/AUC (iv)] × [Dose (iv)/Dose (oral)]} × 100.
# [3] = male, Wistar, rat, in vivo, iv, 1.5 mg/kg
# [4] = male, Wistar, rat, in vivo, po, 15 mg/kg
# [5] = pure marker, oral single dose 15 mg/kg, 15 mg/kg
molecule,measurement,setting,value
C[C@@H]1CC[C@@]2(OC1)O[C@H]1C[C@H]3[C@@H]4CC=C5C[C@@H](O)CC[C@]5(C)[C@H]4CC[C@]3(C)[C@H]1[C@@H]2C [Diosgenin],Refrigerator standard stock solution stability,[1]; 0.4 µg/ml,91.73 ± 0.46%
same,Room temperature standard stock solution stability,[1]; 0.4 µg/ml,85.18 ± 0.45%
same,Refrigerator standard stock solution stability,[1]; 0.8 µg/ml,90.24 ± 1.13%
same,Room temperature standard stock solution stability,[1]; 0.8 µg/ml,84.86 ± 1.23%
same,Refrigerator standard stock solution stability,[1]; 1.2 µg/ml,89.56 ± 2.21%
same,Room temperature standard stock solution stability,[1]; 1.2 µg/ml,85.03 ± 2.16%
same,Degradation in plasma,"[1]; plasma, under different experimental conditions",no significant degradation
same,Freeze thaw stability,[1]; 0.4 µg/ml,87.06%
same,Short-term room temperature stability,[1]; 0.4 µg/ml,98.64%
same,Freeze thaw stability,[1]; 0.8 µg/ml,94.52%
same,Short-term room temperature stability,[1]; 0.8 µg/ml,97.90%
same,Freeze thaw stability,[1]; 1.2 µg/ml,97.86%
same,Short-term room temperature stability,[1]; 1.2 µg/ml,98.25%
same,bioavailability,"[2]; male, Wistar, rat, in vivo",9 ± 0.2%
same,AUC 0-∞,[2]; [3],4.9575 ± 0.44 µg·h/mL
same,Cl (drug clearance),[2]; [3],0.2221 ± 0.05 mL/h/kg
same,Cmax,[2]; [3],0.6122 ± 0.1 µg/mL
same,MRT (mean residence time),[2]; [3],9.9420 ± 0.90 h
same,Vd (apparent volume of distribution),[2]; [3],0.0025397 ± 0.00057 L/kg
same,t 1/2 (plasma half-life),[2]; [3],7.9300 ± 0.37 h
same,AUC(0-inf),[2]; [3],4.47 µg·h/mL
same,clearance,"[2]; male, Wistar, rat, in vivo, iv, 1.5 mg/kg, Cl (drug clearance)",220 mL/h/kg
same,Cmax,"[2]; male, Wistar, rat, in vivo, iv, 1.5 mg/kg, Cmax",0.57 µg/mL
same,MRT,[2]; [3],8.2 h
same,Vd,"[2]; male, Wistar, rat, in vivo, iv, 1.5 mg/kg, Vd (apparent volume of distribution)",2.5 L/kg
same,half-life,[2]; [3],7.56 h
same,AUC 0-∞,[2]; [4],4.4753 ± 0.06 µg·h/mL
same,Cl (drug clearance),[2]; [4],2.5143 ± 0.09 mL/h/kg
same,Cmax,[2]; [4],0.5773 ± 0.012 µg/mL
same,MRT (mean residence time),[2]; [4],8.2008 ± 0.15 h
same,Tmax,[2]; [4],1 h
same,t 1/2 (plasma half-life),[2]; [4],7.5638 ± 0.21 h
same,AUC(0-inf),[2]; [4],4.95 µg·h/mL
same,Cmax,"[2]; male, Wistar, rat, in vivo, po, 15 mg/kg, Cmax",0.61 µg/mL
same,MRT,[2]; [4],9.94 h
same,half-life,[2]; [4],7.93 h
same,k el,"[2]; male, Wistar, rat, iv, 1.5 mg/kg, pure marker, IV single dose 1.5 mg/kg",2.5e-05 s⁻¹
same,k el,"[2]; male, Wistar, rat, po, 15 mg/kg, pure marker, oral single dose 15 mg/kg",2.22e-05 s⁻¹
same,AUMC 0-∞,"[2]; pure marker, IV single dose 1.5 mg/kg",17.3937 ± 2.10 µg.h^2/ml
same,Kel (elimination rate constant),"[2]; pure marker, IV single dose 1.5 mg/kg, 1.5 mg/kg",0.0875 ± 0.004 h⁻¹
same,AUMC 0-∞,"[2]; pure marker, oral single dose 15 mg/kg",36.700 ± 0.77 µg.h^2/ml
same,Kel (elimination rate constant),[2]; [5],0.0917 ± 0.003 h⁻¹
same,Ka (rate of absorption),[2]; [5],1.1 h⁻¹ and 1.1 ± 0.10 h⁻¹
Charantin,Degradation in plasma,[1],no significant degradation
same,Absolute bioavailability,"[2]; rat, in vivo",8.18 ± 0.36%
same,AUMC 0-∞,"[2]; rat, in vivo, iv, 1.5 mg/kg",182.9438 ± 1.74 µg.h^2/ml
same,AUMC 0-∞,"[2]; rat, in vivo, po, 15 mg/kg",176.7245 ± 1.83 µg.h^2/ml
same,Cl (drug clearance),"[2]; rat, in vivo, po, 15 mg/kg",5.9268 ± 0.31 mL/h/kg
same,Tmax,"[2]; rat, in vivo, po, 15 mg/kg",6 h
